In ChEMBL document CHEMBL1149673, “A novel approach to cyclin-dependent kinase 5/p25 inhibitors: A potential treatment for Alzheimer's disease” (Bioorg Med Chem, 2007):
pIC50: −log10 of the molar value.

Columns and labels:
[1] = target: Cyclin-dependent kinase 5/CDK5 activator 1 (Homo sapiens, UniProt Q00535); test: Inhibitory activity against Cdk5/p25; type: protein-complex assay
[2] = Toxicity in Vero-C1008 cells at 6.25 to 50 ug/ml; type: cell-based; settings: African green monkey
Homo sapiens = organism: Homo sapiens; test: Selectivity for Cdk5/p25 over Cdk2/cyclin E
[3] = Inhibitory activity against Cdk2/cyclin E; design: species or system Homo sapiens

Sequence of Cyclin-dependent kinase 5/CDK5 activator 1 (Q00535 whole entry): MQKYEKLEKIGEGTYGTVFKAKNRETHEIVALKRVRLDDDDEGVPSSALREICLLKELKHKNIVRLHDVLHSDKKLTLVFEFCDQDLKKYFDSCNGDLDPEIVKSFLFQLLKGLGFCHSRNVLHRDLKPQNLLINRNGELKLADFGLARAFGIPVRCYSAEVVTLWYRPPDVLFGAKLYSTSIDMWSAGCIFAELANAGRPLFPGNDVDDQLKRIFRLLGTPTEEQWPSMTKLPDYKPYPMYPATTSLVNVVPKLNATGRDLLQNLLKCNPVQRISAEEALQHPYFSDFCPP
Sequence of Cyclin-dependent kinase 5/CDK5 activator 1 (Q15078 whole entry, further chain): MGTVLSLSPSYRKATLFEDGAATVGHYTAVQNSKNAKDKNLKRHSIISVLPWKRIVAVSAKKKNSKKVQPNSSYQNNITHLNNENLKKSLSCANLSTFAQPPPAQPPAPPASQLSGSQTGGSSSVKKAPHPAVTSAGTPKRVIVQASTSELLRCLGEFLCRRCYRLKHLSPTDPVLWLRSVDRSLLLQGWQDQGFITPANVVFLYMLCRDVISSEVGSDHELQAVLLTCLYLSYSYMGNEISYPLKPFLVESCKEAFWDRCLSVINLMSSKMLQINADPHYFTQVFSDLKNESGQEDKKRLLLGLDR

Compound	pIC50 [1]	Ratio IC50 (Homo sapiens)	pIC50 [3]	Activity [2]
CC(=O)Nc1cc(-c2ccccc2)c(-c2nnc3n2N=C(c2cc(F)c(Cl)cc2Cl)/C(=C/c2cccc([N+](=O)[O-])c2)S3)s1	5.61			Not Active
Cc1cc(NC(=O)CCl)sc1-c1nnc2sc(-c3ccccc3)nn12	7.52	3.2	7.02	Not Active
O=C(CCl)Nc1cc(-c2ccccc2)c(-c2nnc3n2NC(c2ccccc2)=C(c2ccccc2)S3)s1	7.21	2	6.90	Not Active
CC(=O)Nc1cc(-c2ccccc2)c(-c2nnc3n2N=C(c2cc(F)c(Cl)cc2Cl)/C(=C/c2ccccc2Cl)S3)s1	5.61			Not Active
Cc1cc(NC(=O)CCl)sc1-c1nnc2sc(=S)[nH]n12	5.13			Not Active
CC(=O)Nc1cc(-c2ccccc2)c(-c2nnc3n2NC(c2ccccc2)=C(c2ccccc2)S3)s1	7.40	2	7.09	Not Active
Cc1cc(NC(=O)CCl)sc1-c1nnc(S)n1N	7.34		7.31	Not Active
CC(=O)Nc1cc(C)c(-c2nnc3n2Nc2nc4ccccc4nc2S3)s1	7.47	2	7.15	Not Active
Cc1cc(NC(=O)CCl)sc1-c1nnc2n1N=C(c1cc(F)c(Cl)cc1Cl)/C(=C/c1ccccc1)S2	5.47			Not Active
CC(=O)Nc1cc(C)c(-c2nnc3sc(-c4ccccc4)nn23)s1	7.38	1.2	7.29	Not Active
O=C(CCl)Nc1cc(-c2ccccc2)c(-c2nnc3sc(-c4cccc([N+](=O)[O-])c4)nn23)s1	7.32	1	7.28	Not Active
Cc1cc(NC(=O)CCl)sc1-c1nnc2sc(-c3cccc([N+](=O)[O-])c3)nn12	7.28	1	7.19	Not Active
CC(=O)Nc1cc(C)c(-c2nnc3n2NC(=O)CS3)s1	6.20			Not Active
Cc1cc(NC(=O)CCl)sc1-c1nnc2n1Nc1nc3ccccc3nc1S2	7.19	2.2	6.85	Not Active
CC(=O)Nc1cc(-c2ccccc2)c(-c2nnc(S)n2N)s1	7.27	1	7.25	Not Active
CC(=O)Nc1cc(-c2ccccc2)c(-c2nnc3sc(-c4cccc([N+](=O)[O-])c4)nn23)s1	7.22	1	7.19	Not Active
O=C(CCl)Nc1cc(-c2ccccc2)c(-c2nnc3n2N=C(c2cc(F)c(Cl)cc2Cl)/C(=C/c2ccccc2Cl)S3)s1	5.61			Not Active
CC1=Nn2c(nnc2-c2sc(NC(=O)CCl)cc2-c2ccccc2)SC1	6.43			Not Active
Cc1cc(NC(=O)CCl)sc1-c1nnc2n1N=C(c1cc(F)c(Cl)cc1Cl)/C(=C/c1ccc(Cl)cc1)S2	5.53			Not Active
CC(=O)Nc1cc(C)c(-c2nnc3n2N=C(C)CS3)s1	6.19			Not Active
CC(=O)Nc1cc(-c2ccccc2)c(-c2nnc3n2Nc2nc4ccccc4nc2S3)s1	7.27	1.2	7.19	Not Active
CC1=Nn2c(nnc2-c2sc(NC(=O)CCl)cc2C)SC1	6.34			Not Active
Cc1cc(NC(=O)CCl)sc1-c1nnc2n1N=C(c1cc(F)c(Cl)cc1Cl)/C(=C/c1cccc([N+](=O)[O-])c1)S2	5.51			Not Active
CC(=O)Nc1cc(-c2ccccc2)c(-c2nnc3sc(-c4ccccc4)nn23)s1	7.42	1.2	7.36	Not Active
CC(=O)Nc1cc(C)c(-c2nnc3n2NC(c2ccccc2)=C(c2ccccc2)S3)s1	7.36	2	7.05	Not Active
Cc1cc(NC(=O)CCl)sc1-c1nnc2n1NC(c1ccccc1)=C(c1ccccc1)S2	7.14	2	6.81	Not Active
O=C(CCl)Nc1cc(-c2ccccc2)c(-c2nnc3sc(-c4ccccc4)nn23)s1	7.55	3.2	7.04	Not Active
CC(=O)Nc1cc(C)c(-c2nnc3n2N=C(c2cc(F)c(Cl)cc2Cl)/C(=C/c2ccccc2)S3)s1	5.63			Not Active
Nn1c(S)nnc1-c1sc(NC(=O)CCl)cc1-c1ccccc1	7.38	3	6.92	Not Active
CC(=O)Nc1cc(C)c(-c2nnc3sc(=S)[nH]n23)s1	5.49			Not Active

Further lines, with some results ahead:

pIC50 [1]	Ratio IC50 (Homo sapiens)	pIC50 [3]	Compound	Activity [2]
5.48			Cc1cc(NC(=O)CCl)sc1-c1nnc2n1N=C(c1cc(F)c(Cl)cc1Cl)/C(=C/c1ccccc1Cl)S2	Not Active
7.52	3.2	6.99	O=C(CCl)Nc1cc(-c2ccccc2)c(-c2nnc3n2Nc2nc4ccccc4nc2S3)s1	Not Active
6.09			Cc1cc(NC(=O)CCl)sc1-c1nnc2n1NC(=O)CS2	Not Active
7.24	1	7.28	CC(=O)Nc1cc(C)c(-c2nnc(S)n2N)s1	Not Active
7.19	1	7.11	CC(=O)Nc1cc(C)c(-c2nnc3sc(-c4cccc([N+](=O)[O-])c4)nn23)s1	Not Active
5.61			O=C(CCl)Nc1cc(-c2ccccc2)c(-c2nnc3n2N=C(c2cc(F)c(Cl)cc2Cl)/C(=C/c2ccc(Cl)cc2)S3)s1	Not Active
6.35			CC(=O)Nc1cc(-c2ccccc2)c(-c2nnc3n2N=C(C)CS3)s1	Not Active
5.57			O=C(CCl)Nc1cc(-c2ccccc2)c(-c2nnc3n2N=C(c2cc(F)c(Cl)cc2Cl)/C(=C/c2cccc([N+](=O)[O-])c2)S3)s1	Not Active
5.61			CC(=O)Nc1cc(-c2ccccc2)c(-c2nnc3n2N=C(c2cc(F)c(Cl)cc2Cl)/C(=C/c2ccc(Cl)cc2)S3)s1	Not Active
5.47			CC(=O)Nc1cc(C)c(-c2nnc3n2N=C(c2cc(F)c(Cl)cc2Cl)/C(=C/c2ccc(Cl)cc2)S3)s1	Not Active
6.20			O=C(CCl)Nc1cc(-c2ccccc2)c(-c2nnc3n2NC(=O)CS3)s1	Not Active
5.52			CC(=O)Nc1cc(C)c(-c2nnc3n2N=C(c2cc(F)c(Cl)cc2Cl)/C(=C/c2cccc([N+](=O)[O-])c2)S3)s1	Not Active
5.69			CC(=O)Nc1cc(-c2ccccc2)c(-c2nnc3sc(=S)[nH]n23)s1	Not Active
6.38			CC(=O)Nc1cc(-c2ccccc2)c(-c2nnc3n2NC(=O)CS3)s1	Not Active
5.84			CC(=O)Nc1cc(-c2ccccc2)c(-c2nnc3n2N=C(c2cc(F)c(Cl)cc2Cl)/C(=C/c2ccccc2)S3)s1	Not Active
5.23			O=C(CCl)Nc1cc(-c2ccccc2)c(-c2nnc3sc(S)nn23)s1	Not Active
5.60			O=C(CCl)Nc1cc(-c2ccccc2)c(-c2nnc3n2N=C(c2cc(F)c(Cl)cc2Cl)/C(=C/c2ccccc2)S3)s1	Not Active
5.48			CC(=O)Nc1cc(C)c(-c2nnc3n2N=C(c2cc(F)c(Cl)cc2Cl)/C(=C/c2ccccc2Cl)S3)s1	Not Active
